Laboratory results as given in ChEMBL document CHEMBL1201862, “PubChem BioAssay data set” (2004).
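Cultured in 96-well plates, cells were exposed to test compound for 48 hours across five concentrations. The concentration for 50% growth inhibition is given as GI50.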 The source made the active and inactive calls. Cut-off read from the data, not from the text of the source: active = GI50 up to about 1.1 µM and inactive = higher.

How the values were obtained:
Assay in all cases: inhibition of tumour cell growth, NCI panel, 48 h
HCC 2998 = test system: HCC 2998
HCT-116 = test system: HCT-116
HCT-15 = test system: HCT-15
IGROV-1 = test system: IGROV-1
K562 = test system: K562
KM12 = test system: KM12
MDA-N = test system: MDA-N
NCI-H460 = test system: NCI-H460
NCI-H522 = test system: NCI-H522
NCI/ADR-RES = test system: NCI/ADR-RES
OVCAR-3 = test system: OVCAR-3
RPMI-8226 = test system: RPMI-8226
SF-268 = test system: SF-268
SF-295 = test system: SF-295
SN12C = test system: SN12C
SNB-19 = test system: SNB-19
SR = test system: SR
U-251 = test system: U-251
UO-31 = test system: UO-31

Row | Compound | GI50 (HCC 2998) | GI50 (HCT-116) | GI50 (HCT-15) [µM] | GI50 (IGROV-1) | GI50 (K562) | GI50 (KM12) | GI50 (MDA-N) | GI50 (NCI-H460) | GI50 (NCI-H522) | GI50 (NCI/ADR-RES) | GI50 (OVCAR-3) | GI50 (RPMI-8226) | GI50 (SF-268) | GI50 (SF-295) | GI50 (SN12C) | GI50 (SNB-19) | GI50 (SR) | GI50 (U-251) | GI50 (UO-31)
1 | CC(Br)C(=O)NN1C2=C(Nc3ccccc31)c1cccc3cccc2c13 (centres undefined) | 13.5 µM (inactive) | > 100 µM (inactive) | 66.1 | 34.4 µM (inactive) | > 100 µM (inactive) | > 100 µM (inactive) | 90.6 µM (inactive) | 49.4 µM (inactive) | 92 µM (inactive) | 65.2 µM (inactive) | 49.3 µM (inactive) | 48.4 µM (inactive) | > 100 µM (inactive) | 39.3 µM (inactive) | > 100 µM (inactive) | > 100 µM (inactive) | 41 µM (inactive) | 41.5 µM (inactive) | > 100 µM (inactive)
2 | COc1ccc2cc(CNCCCN3CCN(CCCNCc4ccc5cc(OC)ccc5c4)CC3)ccc2c1 | 0.24 µM (active) | 1.26 µM (inactive) | 1.57 | 1.72 µM (inactive) | 0.198 µM (active) | 0.789 µM (active) | 1.44 µM (inactive) | 0.83 µM (active) | 2.24 µM (inactive) | 2.21 µM (inactive) | 1.63 µM (inactive) | 0.276 µM (active) | 1.77 µM (inactive) | 1.68 µM (inactive) | 1.69 µM (inactive) | 1.76 µM (inactive) | 0.333 µM (active) | 1.75 µM (inactive) | 1.76 µM (inactive)
3 | COc1ccccc1NC(=S)NNC(=O)c1cc(-c2ccccc2)nc2ccccc12 | 13.6 µM (inactive) | 6.22 µM (inactive) | 4.11 | 13.9 µM (inactive) | 6.97 µM (inactive) | 7.01 µM (inactive) | 3.35 µM (inactive) | 13.2 µM (inactive) | 12.9 µM (inactive) | 12.8 µM (inactive) | 4.45 µM (inactive) | 6.97 µM (inactive) | 17.5 µM (inactive) | 4.38 µM (inactive) | 14.7 µM (inactive) | 24.5 µM (inactive) | 1.74 µM (inactive) | 9.59 µM (inactive) | 11 µM (inactive)
4 | COc1cccc(C2c3cc4c(cc3OC(C)(N3CCCC3)C2C)OCO4)c1O (centres undefined) | 8.09 µM (inactive) | 4.25 µM (inactive) | 3.6 | 6.01 µM (inactive) | 3.45 µM (inactive) | 3.14 µM (inactive) | 1.93 µM (inactive) | 5.5 µM (inactive) | 2.05 µM (inactive) | 2.72 µM (inactive) | 2.05 µM (inactive) | 5.32 µM (inactive) | 8.22 µM (inactive) | 4.9 µM (inactive) | 6.58 µM (inactive) | 4.06 µM (inactive) | 2.06 µM (inactive) | 4.35 µM (inactive) | 10.9 µM (inactive)
5 | C/C(=N\NC(=S)NCCCCNC(=S)N/N=C(\C)c1ccccn1)c1ccccc1 | 1.66 µM (inactive) | 0.331 µM (active) | 0.484 | 0.736 µM (active) | 2.25 µM (inactive) | 1.77 µM (inactive) | 2.25 µM (inactive) | 0.481 µM (active) | 1.15 µM (inactive) | 0.914 µM (active) | 0.424 µM (active) | 1.35 µM (inactive) | 0.394 µM (active) | 0.982 µM (active) | 0.859 µM (active) | > 24.8 µM (inactive) | 0.317 µM (active) | 0.962 µM (active) | 0.635 µM (active)
6 | O=C(N/N=C\c1cccc2c([N+](=O)[O-])cccc12)Nc1ccccc1 | 15.1 µM (inactive) | 5.37 µM (inactive) | 11.2 | 19 µM (inactive) | 5.85 µM (inactive) | 14.9 µM (inactive) | 13.1 µM (inactive) | 14.2 µM (inactive) | 14.6 µM (inactive) | 12.4 µM (inactive) | 14.2 µM (inactive) | 14.7 µM (inactive) | 21.6 µM (inactive) | 13.9 µM (inactive) | 4.59 µM (inactive) | 14.6 µM (inactive) | 11.3 µM (inactive) | 7.08 µM (inactive) | 13.2 µM (inactive)
